# Experimental data reported in patent US10858352B2, “Pharmaceutical compounds” (Heptares Therapeutics Limited, priority 2018, dated 2020).
# Where two headings read alike, the source gives them in different places.
# Assays:
# [1] = target: T1, human muscarinic M1 receptor (Homo sapiens, UniProt P11229); assay: Alphascreen Surefire phospho-ERK1/2 functional assay, M1; assay type: cell-based; conditions: for % Emax cf. ACh (M1) / Emax: Emax relative to ACh; for EC50 / pEC50 M1: agonist 5 min, 37° C.; for Emax: CHO, read-out: % Emax cf. ACh (M1), CHO cells stably expressing human M1
# T1 sequence (P11229 1-460): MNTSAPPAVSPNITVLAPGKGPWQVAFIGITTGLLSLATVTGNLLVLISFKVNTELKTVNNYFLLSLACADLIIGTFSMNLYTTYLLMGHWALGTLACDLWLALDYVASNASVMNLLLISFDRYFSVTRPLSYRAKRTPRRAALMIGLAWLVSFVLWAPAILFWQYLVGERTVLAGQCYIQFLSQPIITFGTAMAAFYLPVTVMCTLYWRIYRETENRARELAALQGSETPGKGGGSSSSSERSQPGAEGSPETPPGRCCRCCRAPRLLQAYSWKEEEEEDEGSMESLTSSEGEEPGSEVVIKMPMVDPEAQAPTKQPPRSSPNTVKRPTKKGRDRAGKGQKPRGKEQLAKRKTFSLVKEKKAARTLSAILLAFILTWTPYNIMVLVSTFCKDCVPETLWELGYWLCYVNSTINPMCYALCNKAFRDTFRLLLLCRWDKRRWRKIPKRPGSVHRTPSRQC
# Protocol: (§1) ERK1/2 phosphorylation is a downstream consequence of both Gq/11 and Gi/o protein coupled receptor activation, making it highly suitable for the assessment of M1, M3 (Gq/11 coupled) and M2, M4 receptors (Gi/o coupled), rather than using different assay formats for different receptor subtypes. CHO cells stably expressing the human muscarinic M1, M2, M3 or M4 receptor were plated (25K/well) onto 96-well tissue culture plates in MEM-alpha+10% dialysed FBS. Once adhered, cells were serum-starved overnight. Agonist stimulation was performed by the addition of 5 μL agonist to the cells for 5 min (37° C.). Media was removed and 50 μL of lysis buffer added. After 15 min, a 4 μL sample was transferred to 384-well plate and 7 μL of detection mixture added. […]
# [2] = target: T2, human muscarinic M4 receptor (Homo sapiens, UniProt P08173); assay: Alphascreen Surefire phospho-ERK1/2 functional assay, M4; assay type: cell-based; conditions: for % Emax cf. ACh (M4) / EC50 / pEC50 M4: CHO cells stably expressing human M4; for % Emax cf. ACh (M4) / Emax: Emax relative to ACh; for EC50 / pEC50 M4: agonist 5 min, 37° C.; for EC50: read-out: pEC50 M4 (converted); for Emax: CHO, read-out: % Emax cf. ACh (M4), CHO cells stably expressing human M4
# T2 construct: expressed in transfected cells
# T2 sequence (P08173 1-479): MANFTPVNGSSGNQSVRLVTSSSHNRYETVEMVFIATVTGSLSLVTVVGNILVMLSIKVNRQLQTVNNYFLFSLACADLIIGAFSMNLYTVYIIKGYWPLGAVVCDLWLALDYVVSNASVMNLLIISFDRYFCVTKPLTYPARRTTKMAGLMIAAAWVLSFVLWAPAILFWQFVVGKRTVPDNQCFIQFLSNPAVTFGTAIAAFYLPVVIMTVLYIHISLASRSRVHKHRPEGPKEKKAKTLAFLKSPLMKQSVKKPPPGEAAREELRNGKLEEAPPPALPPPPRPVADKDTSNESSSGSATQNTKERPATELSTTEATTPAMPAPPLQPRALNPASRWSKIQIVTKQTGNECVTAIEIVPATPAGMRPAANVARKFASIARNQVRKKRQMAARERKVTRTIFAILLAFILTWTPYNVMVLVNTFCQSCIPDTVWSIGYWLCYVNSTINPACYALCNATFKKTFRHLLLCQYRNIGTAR
# Protocol: as §1
# [3] = CHO cells stably expressing human M1
# [4] = CHO cells stably expressing human M1, read-out: pEC50 M1 (converted)
# [5] = pEC50 M1, CHO cells stably expressing human M1
Structure (SMILES),"% Emax cf. ACh (M1) [1, 3]","EC50 [1, 4]",% Emax cf. ACh (M4) [2],EC50 [2],Emax [1],Emax [2],"pEC50 M1 [1, 3]",pEC50 M4 [2],"EC50 [1, 5]"
"Cc1noc(N2CCCC(N3CCC(N4CC(F)(F)C[C@@H]4CO)CC3)CC2)n1 (single isomer, unassigned) [10-8 Isomer 2]",(35) %,1550 nM,(73) %,295 nM,–,–,–,–,–
"CNC(=O)N1CCC[C@H]1C1CCN(C2CCCN(c3nc(C)no3)CC2)CC1 (single isomer, unassigned) [10-12 Isomer 2]",(24) %,–,(119) %,55 nM,–,–,<4.70,–,–
CCN(C(C)=O)C1CCN(C2CCCN(c3nc(C)no3)CC2)CC1 (racemic) [10-11 Racemic mixture],–,3980 nM,–,219 nM,56%,101%,–,–,–
"Cc1noc(N2C3CCCC2CC(N2CCC4(CC2)CNC(=O)C4)C3)n1 (single isomer, unassigned) [8-2 Isomer 1]",–,214 nM,–,> 20000 nM,30%,9%,–,–,–
"Cc1noc(N2C3CCCC2CC(N2CCC(n4cccn4)CC2)C3)n1 (single isomer, unassigned) [8-1 Isomer 2]",–,> 20000 nM,–,1260 nM,24%,38%,–,–,–
"Cc1noc(N2CCCC(N3CCC(N4CCCC4c4cnn(C)c4)CC3)CC2)n1 (single isomer, unassigned) [10-10 Isomer 1b]",(6) %,> 20000 nM,–,513 nM,–,56%,–,–,–
"Cc1noc(N2C3CCCC2CC(N2CCC(C(=O)NC4(C)CCC4)CC2)C3)n1 (single isomer, unassigned) [8-4 Isomer 1]",–,575 nM,–,646 nM,98%,76%,–,–,–
"Cc1noc(N2C3CCC2CC(N2C[C@@H]4[C@H](C2)[C@H]4C(=O)NC2(C)CCC2)C3)n1 (single isomer, unassigned; isomer 2) [12-13 Isomer 2]",(102) %,–,(69) %,–,–,–,6.48,6.09,–
"CCC1NC(=O)OC12CCN(C1CCCN(c3nc(C)no3)CC1)CC2 (single isomer, unassigned) [10-4 Isomer 2]",(58) %,55 nM,(64) %,23.4 nM,–,–,–,–,–
"Cc1noc(N2CCCC(N3CCC4(CC3)OC(=O)NC4(C)C)CC2)n1 (single isomer, unassigned) [10-5 Isomer 1]",–,> 20000 nM,–,219 nM,21%,33%,–,–,–
"Cc1noc(N2C3CCC2CC(N2CCC4(CC2)CNC(=O)C4)C3)n1 (single isomer, unassigned) [6-2 Isomer 2]",(81) %,–,(39) %,170 nM,–,–,–,–,63.1 nM
"Cc1noc(N2CCCC(N3CCC(N4CCCC4c4cnn(C)c4)CC3)CC2)n1 (single isomer, unassigned) [10-10 Isomer 2b]",(14) %,–,(72) %,316 nM,–,–,<4.70,–,–
"CNC(=O)N1CCC[C@H]1C1CCN(C2CCCN(c3nc(C)no3)CC2)CC1 (single isomer, unassigned) [10-12 Isomer 1]",–,> 20000 nM,–,309 nM,22%,100%,–,–,–
"Cc1noc(N2C3CCC2CC(N2CCC(C(=O)NC4(C(F)(F)F)CCC4)CC2)C3)n1 (single isomer, unassigned) [12-7 Isomer 2]",–,537 nM,–,2000 nM,109%,109%,–,–,–
"CC1(NC(=O)C2CCN(C3CC4CCC(C3)N4c3nc(C(F)(F)F)no3)CC2)CCC1 (single isomer, unassigned) [12-14 Isomer 1]",(47) %,–,(6) %,> 20000 nM,–,–,–,–,912 nM
"Cc1noc(N2CCCC(N3CCC(n4cccn4)CC3)CC2)n1 (single isomer, unassigned) [10-1 Isomer 2]",(43) %,6610 nM,(72) %,525 nM,–,–,–,–,–
"Cc1noc(N2C3CCC2CC(N2CCC4(CC2)CNC(=O)O4)C3)n1 (single isomer, unassigned) [6-4 Isomer 1]",(49) %,240 nM,(15) %,> 20000 nM,–,–,–,–,–

# Continued, in another order:
"% Emax cf. ACh (M1) [1, 3]","EC50 [1, 4]",% Emax cf. ACh (M4) [2],EC50 [2],Emax [1],Emax [2],"pEC50 M1 [1, 3]",pEC50 M4 [2],Structure (SMILES),"EC50 [1, 5]"
–,676 nM,–,93.3 nM,37%,91%,–,–,"Cc1noc(N2CCCC(N3CCC(N4CC(F)(F)C[C@@H]4CO)CC3)CC2)n1 (single isomer, unassigned) [10-8 Isomer 1]",–
(81) %,9330 nM,(71) %,2190 nM,–,–,–,–,"CCC1NC(=O)OC12CCN(C1CCCN(c3nc(C)no3)CC1)CC2 (single isomer, unassigned) [10-4 Isomer 3]",–
–,372 nM,–,> 20000 nM,97%,10%,–,–,Cc1noc(N2CCCC(N3CCC4(CC3)CNC(=O)O4)CC2)n1 (racemic) [10-3 Racemic mixture],–
(3) %,–,(52) %,1450 nM,–,–,<4.70,–,"Cc1noc(N2CCCC(N3CCC(N4CCCC4c4cnn(C)c4)CC3)CC2)n1 (single isomer, unassigned) [10-10 Isomer 2a]",–
–,3160 nM,–,1050 nM,48%,69%,–,–,"Cc1noc(N2CC3CC(N4CCC(n5cccn5)CC4)CC2C3)n1 (single isomer, unassigned) [11-1 Isomer 2]",–
–,≥ 20000 nM,–,1000 nM,50%,85%,–,–,"Cc1noc(N2CCC(N3CCC(n4cccn4)CC3)CC2)n1 [Example 4-1, 1′-(3-Methyl-1,2,4-oxadiazol-5-yl)-4-(1H-pyrazol-1-yl)-1,4′-bipiperidine]",–
(123) %,676 nM,(85) %,100 nM,–,–,–,–,"CCC1NC(=O)OC12CCN(C1CCCN(c3nc(C)no3)CC1)CC2 (single isomer, unassigned) [10-4 Isomer 1]",–
–,1350 nM,–,129 nM,32%,73%,–,–,"Cc1noc(N2CCCC(N3CCC(n4cccn4)CC3)CC2)n1 (single isomer, unassigned) [10-1 Isomer 1]",–
(58) %,603 nM,(5) %,> 20000 nM,–,–,–,–,"Cc1noc(N2CC3CCC2CC3N2CCC3(CC2)CNC(=O)C3)n1 (single isomer, unassigned) [12-1 Isomer 1]",–
(53) %,490 nM,(15) %,–,–,–,–,<4.70,"Cc1noc(N2CCCC(N3CCC4(CC3)CNC(=O)C4)CC2)n1 (single isomer, unassigned) [10-2 Isomer 2]",–
(18) %,> 20000 nM,(36) %,871 nM,–,–,–,–,"CCC1NC(=O)OC12CCN(C1CCCN(c3nc(C)no3)CC1)CC2 (single isomer, unassigned) [10-4 Isomer 4]",–
–,> 20000 nM,–,513 nM,9%,32%,–,–,"CCOC(=O)[C@H]1[C@@H]2CN(C3CC4(CCN(c5nc(C)no5)C4)C3)C[C@@H]21 (single isomer, unassigned) [2-3 Isomer 2]",–
